Patent US20240294545A1 (CSPC Zhongqi Pharmaceutical Technology (Shijiazhuang) Co., …, priority 2020, published 2024)
Marks after values point to notes of the source that are not given here.

How the values were obtained:
[1] = tested on: intracranial murine glioma GL-261-Luc; test: Intracranial murine glioma GL-261-Luc model, combined with radiotherapy; format: in vivo, C57BL/6 mice
Description: 8 Efficacy Test of the Compounds of the Present Disclosure Combined with Radiotherapy in the Intracranial Murine Glioma GL-261-Luc Model
8.1 Experimental Animals: C57BL/6 Mice, SPF, Female, 19 to 22 g.
GL-261-Luc tumor cells, DMEM medium:fetal bovine serum=90%:10%, accompanied by adding […] L-Glu, 37° C., 5% CO2.
Female C57BL/6 mice were anesthetized with Shutai 50 (60 mg/mL) and thiazine (1.5 mg/mL). Buprenorphine (0.1 mg/kg) was injected subcutaneously 30 min before operation and 6 h after operation to relieve pain. The operation area was disinfected with 70% ethanol solution. A sagittal incision was made on the parietal-occipital bone of anesthetized mice with a sterile scalpel, after cleaning the exposed skull surface with 3% hydrogen peroxide solution, tumor cells were injected. After injection, the skull was cleaned with 3% hydrogen peroxide solution, dried with a sterile dry cotton swab, and the incision was sutured. The state of mice was examined continuously to ensure that mice fully recovered from anesthesia.
The inoculated mice were weighed and intraperitoneally injected with […] (150 mg/kg). After 10 min injection, the animals were anesthetized with a mixture of oxygen and isoflurane. When the animal was completely anesthetized, it was moved into the imaging room for bioluminescence detection. The bioluminescence signal of the whole animal was measured and recorded for the image.
Bioluminescence detection was performed on the second day after operation, and the tumor-bearing mice were randomly divided into groups according to the intensity of bioluminescence. The specific groups were as follows. The administration route was intragastric administration and then JR 1 h after administration.
After grouping, bioluminescence detection was performed 1 to 2 times a week, according to the bioluminescence data, tumor growth inhibitory rate was calculated as follows: TGI (%)=[1−(Ti−T0)/(Vi−V0)]×100, wherein Ti represents the mean bioluminescence data of a given treatment group on a certain day; T0 represents the mean bioluminescence data of this treatment group at the beginning of administration; Vi represents the mean bioluminescence data of the vehicle control group on a certain day (the same day as that in Ti); V0 represents the mean bioluminescence data of the vehicle control group at the beginning of administration.

ATM = ATM (Homo sapiens (Human), UniProt Q13315); test: Caliper mobility shift assay for ATM; format: biochemical; conditions: read-out: IC50 of inhibitory activity on ATM kinase
ATM, sequence (Q13315 whole entry): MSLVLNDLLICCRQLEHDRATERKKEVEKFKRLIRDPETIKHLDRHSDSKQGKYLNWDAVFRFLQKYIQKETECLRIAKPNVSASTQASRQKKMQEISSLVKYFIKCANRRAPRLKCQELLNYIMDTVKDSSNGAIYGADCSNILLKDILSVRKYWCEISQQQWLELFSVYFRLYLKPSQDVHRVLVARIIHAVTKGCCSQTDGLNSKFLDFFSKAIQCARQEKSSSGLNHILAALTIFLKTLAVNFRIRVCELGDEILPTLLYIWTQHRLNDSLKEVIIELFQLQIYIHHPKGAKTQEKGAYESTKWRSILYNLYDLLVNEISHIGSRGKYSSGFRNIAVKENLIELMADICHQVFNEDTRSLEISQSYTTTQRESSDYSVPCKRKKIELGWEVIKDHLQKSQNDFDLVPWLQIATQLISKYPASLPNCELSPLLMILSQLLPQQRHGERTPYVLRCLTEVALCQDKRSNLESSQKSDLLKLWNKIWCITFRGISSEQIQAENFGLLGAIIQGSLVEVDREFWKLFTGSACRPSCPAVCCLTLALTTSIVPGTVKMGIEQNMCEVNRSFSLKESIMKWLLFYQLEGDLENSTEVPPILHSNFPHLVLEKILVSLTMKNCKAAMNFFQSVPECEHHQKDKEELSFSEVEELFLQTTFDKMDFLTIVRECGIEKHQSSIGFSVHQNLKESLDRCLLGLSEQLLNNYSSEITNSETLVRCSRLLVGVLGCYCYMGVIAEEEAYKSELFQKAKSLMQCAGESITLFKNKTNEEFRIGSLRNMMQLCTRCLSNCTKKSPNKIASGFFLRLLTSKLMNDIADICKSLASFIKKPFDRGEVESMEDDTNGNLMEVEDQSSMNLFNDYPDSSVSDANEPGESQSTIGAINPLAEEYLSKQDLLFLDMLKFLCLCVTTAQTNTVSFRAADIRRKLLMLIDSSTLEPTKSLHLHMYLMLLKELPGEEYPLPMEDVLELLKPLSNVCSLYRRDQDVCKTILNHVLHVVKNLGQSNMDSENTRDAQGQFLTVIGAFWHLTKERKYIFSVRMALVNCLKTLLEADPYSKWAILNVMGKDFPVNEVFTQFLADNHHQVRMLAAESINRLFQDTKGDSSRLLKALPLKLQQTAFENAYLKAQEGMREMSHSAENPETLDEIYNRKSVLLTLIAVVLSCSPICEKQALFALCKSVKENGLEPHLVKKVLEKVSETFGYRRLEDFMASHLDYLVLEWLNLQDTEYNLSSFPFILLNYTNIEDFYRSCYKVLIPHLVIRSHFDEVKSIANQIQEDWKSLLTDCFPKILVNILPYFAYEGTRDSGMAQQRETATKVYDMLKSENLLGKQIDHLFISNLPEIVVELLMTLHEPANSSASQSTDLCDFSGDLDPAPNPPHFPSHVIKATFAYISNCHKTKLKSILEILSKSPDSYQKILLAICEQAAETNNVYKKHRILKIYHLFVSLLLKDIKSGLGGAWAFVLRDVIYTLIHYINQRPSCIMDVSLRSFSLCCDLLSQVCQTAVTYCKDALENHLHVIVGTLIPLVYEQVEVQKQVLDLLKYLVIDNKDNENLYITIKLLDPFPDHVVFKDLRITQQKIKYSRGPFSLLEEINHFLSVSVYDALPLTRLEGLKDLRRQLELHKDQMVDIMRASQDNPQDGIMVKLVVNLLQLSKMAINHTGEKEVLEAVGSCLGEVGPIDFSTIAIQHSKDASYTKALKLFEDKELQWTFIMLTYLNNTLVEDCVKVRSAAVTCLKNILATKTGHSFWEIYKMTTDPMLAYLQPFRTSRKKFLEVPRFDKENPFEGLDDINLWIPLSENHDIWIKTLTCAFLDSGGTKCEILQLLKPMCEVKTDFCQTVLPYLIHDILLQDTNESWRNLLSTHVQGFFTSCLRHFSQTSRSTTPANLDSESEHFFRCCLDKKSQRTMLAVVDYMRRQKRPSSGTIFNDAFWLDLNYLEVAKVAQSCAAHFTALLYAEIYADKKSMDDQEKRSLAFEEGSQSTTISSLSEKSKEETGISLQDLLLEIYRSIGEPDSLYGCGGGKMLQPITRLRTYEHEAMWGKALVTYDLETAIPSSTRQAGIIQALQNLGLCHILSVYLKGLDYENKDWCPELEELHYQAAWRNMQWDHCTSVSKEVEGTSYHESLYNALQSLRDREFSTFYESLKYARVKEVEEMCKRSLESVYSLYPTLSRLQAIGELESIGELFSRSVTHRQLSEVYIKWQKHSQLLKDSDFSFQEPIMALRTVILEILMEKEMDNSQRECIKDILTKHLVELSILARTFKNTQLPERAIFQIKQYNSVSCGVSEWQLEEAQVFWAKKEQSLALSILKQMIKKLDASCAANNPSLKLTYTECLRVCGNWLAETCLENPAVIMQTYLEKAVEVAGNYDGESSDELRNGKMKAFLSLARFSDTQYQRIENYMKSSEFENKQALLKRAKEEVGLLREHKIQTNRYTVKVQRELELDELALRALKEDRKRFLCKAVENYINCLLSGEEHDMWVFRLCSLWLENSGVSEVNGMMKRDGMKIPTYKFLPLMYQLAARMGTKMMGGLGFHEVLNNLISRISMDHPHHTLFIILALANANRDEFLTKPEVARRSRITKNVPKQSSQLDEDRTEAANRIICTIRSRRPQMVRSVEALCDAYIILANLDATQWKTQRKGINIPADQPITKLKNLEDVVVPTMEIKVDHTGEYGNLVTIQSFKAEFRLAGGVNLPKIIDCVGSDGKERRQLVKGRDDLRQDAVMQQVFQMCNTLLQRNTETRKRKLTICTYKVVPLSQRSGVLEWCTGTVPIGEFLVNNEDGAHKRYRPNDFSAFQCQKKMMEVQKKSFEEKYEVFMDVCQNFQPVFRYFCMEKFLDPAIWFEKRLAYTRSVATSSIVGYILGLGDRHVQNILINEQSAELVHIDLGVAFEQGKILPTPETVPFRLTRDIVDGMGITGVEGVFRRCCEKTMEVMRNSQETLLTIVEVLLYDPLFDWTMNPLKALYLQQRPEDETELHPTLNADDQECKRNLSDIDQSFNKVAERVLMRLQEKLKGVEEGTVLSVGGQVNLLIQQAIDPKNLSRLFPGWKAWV
Description: 1.2 Determination of the Inhibitory Activities of Compounds on ATM: Caliper Mobility Shift Assay for ATM
To a 96-well plate, 98 μL of DMSO and 2 μL of the 10 mM stock solution were added and mixed evenly so that the concentration of the solution was 200 μM.
Based on the inhibitory rates of the compound at different concentrations, IC50 was calculated according to the formula: Y=Bottom+(Top−Bottom)/(1+(IC50/X)^HillSlope).

[2] = tested on: subcutaneous xenograft tumor of human glioblastoma LN-18; test: LN-18 subcutaneous xenograft, combined with radiotherapy; format: in vivo, NOG mice; conditions: compound 20 mg/kg intragastric qd × 5 + IR 1 Gy, day 17
Description: 9 Efficacy Test of the Compounds of the Present Disclosure Combined with Radiotherapy on Inhibiting the Growth of Subcutaneous Xenograft Tumor of Human Glioblastoma LN-18
9.1 Experimental Animals: NOG Mice, SPF, Female, 18 to 22 g.
LN-18 tumor cells, DMEM medium:fetal bovine serum=95%:5%, accompanied by adding 100 U/mL penicillin and 100 μg/mL streptomycin, 37° C., 5% CO2.
LN18 tumor cells resuspended in serum-free DMEM medium were inoculated subcutaneously in the right costal region of experimental animals at 1.5*10^7/0.15 mL, and the animals were grouped when the tumor grew to 100 to 150 mm^3. Radiotherapy was performed 1 h after administration of compounds.
Tumor volume: The tumor volume was measured twice a week with a vernier caliper, and the long diameter and short diameter of tumor were measured. The tumor volume was calculated as follows: tumor volume (TV)=0.5×long diameter×short diameter^2. Tumor growth inhibitory rate (TGI %) was calculated according to the tumor volume. TVXn represents the mean tumor volume on day n of the treatment group, TVX0 represents the mean tumor volume on day 0 of the treatment group, TVMn represents the mean tumor volume on day n of the control group, and TVM0 represents the mean tumor volume on day 0 of the control group.

[3] = tested on: subcutaneous xenograft tumor of human non-small cell lung cancer cell line NCI-H441; test: NCI-H441 subcutaneous xenograft, combined with irinotecan liposome injection; format: in vivo, NU/NU mice
Description: 6 Efficacy Test of the Compounds of the Present Disclosure Combined with Irinotecan Liposome Injection on Inhibiting the Growth of Subcutaneous Xenograft Tumor of Human Non-Small Cell Lung Cancer Cell Line NCI-H441
6.1 Experimental Animals: NU/NU Mice, SPF, Female, 20 to 30 g.
Irinotecan liposome injection (HE072), 43 mg:10 mL, milky white liquid, batch No. B37191202, provided by Preparation Research Institute 2 from CSPC Zhongqi Pharmaceutical Technology (Shijiazhuang) Co., Ltd., diluted to an appropriate concentration with 5% glucose injection while testing.
NCI-H441 cells, provided by Nanjing Kebai Biotechnology Co., Ltd.; 1640 culture medium (gibco Company):fetal bovine serum (Lanzhou Bailing)=90%:10%, 37° C., 5% CO2.
NU/NU nude mice were subcutaneously inoculated with NCI-H441 human non-small cell lung cancer cells. When the mean tumor volume reached 170 to 172 mm^3 (15 days after inoculation), the animals were evenly divided into groups according to the tumor volume (d0), with 6 mice in each group. 2.5 mg/kg of HE072 was administered intraperitoneally once a week for 2 times. Vehicle control, 25 mg/kg of A-193, 25 mg/kg of A-182, and 25 mg/kg of AZD1390 were administered intragastrically once a day, from Monday to Thursday every week except Friday to Sunday, for 2 weeks (8 times). The tumor volume was measured twice a week, the body weight of mouse was weighed every day, and the data were recorded. The tumor volume (TV) was calculated according to the formula: TV=½×a×b2, wherein a and b represent the long and short diameters of tumor, respectively. Tumor growth inhibitory rate TGI (%)=[1−(Ti−T0)/(Vi−V0)]×100, wherein Ti represents the mean tumor volume of a given treatment group on a certain day; TO represents the mean tumor volume of this treatment group at the beginning of administration; Vi represents the mean tumor volume of the vehicle control group on a certain day (the same day as that in Ti); V0 represents the mean tumor volume of the vehicle control group at the beginning of administration. At the end of the test (d17), the animals were sacrificed, the tumors were stripped and weighed, and the tumor weight inhibitory rates were calculated.

[4] = compound 25 mg/kg intragastric + irinotecan liposome 2.5 mg/kg ip, day 17
[5] = compound 25 mg/kg intragastric + irinotecan liposome 2.5 mg/kg ip, end of test d17

C[C@@H]1COc2c(-c3ccc(OCCCN4CCCCC4)nc3)ccc3ncc4c(c23)n1c(=O)n4C [Example A-182, (R)-2,10-dimethyl-7-(6-(3-(piperidin-1-yl)propoxy)pyridin-3-yl)-9,10-dihydro-8-oxa-2,4,10a-triazanaphtho[2,1,8-cde]azulen-1(2H)-one]
anti-tumor activity, in words ([1]; combined with radiotherapy, compared with AZD1390): equivalent to that of AZD1390
D17 BLI ([1]; compound 10 mg/kg intragastric qd × 5 + IR 2 Gy, day 17): 5.24*** LOG10
D 17 TGI ([1]; compound 10 mg/kg intragastric qd × 5 + IR 2 Gy, day 17, from bioluminescence): 110.08%
IC50 (ATM): 0.46 nM
D 17 TGI [2]: 85.5%
D 17 TV (MEAN ± SD) [2]: 271 ± 107***^# mm^3
inhibitory effect on tumor volume and tumor weight, in words ([3]; combined with irinotecan liposome injection, compared with AZD1390): higher than those of AZD1390
D 17 TGI [3, 4]: 75.1%
D 17 TV (MEAN ± SD) [3, 4]: 278.5 ± 94.1***^## mm^3
Tumor weight [3, 5]: 0.26 ± 0.07 g
Tumor weight inhibitory rate [3, 5]: 56.1%
